Experiment in all cases: biochemical
What all share (design): KINOMEscan competition binding panel (Eurofins DiscoverX), single concentration, % inhibition

One assay deals with T1, TRKB (Homo sapiens, UniProt Q16620).
T1 construct: gene NTRK2
To be noted: read-out: 7 at 1 µM % inhibition. In short, it runs like this: (§1)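 Values come from single-concentration (1 µM) profiling in the Eurofins DiscoverX KINOMEscan competition-binding platform, which covers over 400 kinases.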

The target in a further assay is NEK3 (Homo sapiens, UniProt P51956). Conditions: read-out: 7 at 1 µM % inhibition. A digest of the protocol: as §1
A further assay has as its target SRPK1 (Homo sapiens, UniProt Q96SB4). To be noted: read-out: 7 at 1 µM % inhibition. A digest of the protocol: as §1
Another assay addresses CAMKK2 (Homo sapiens, UniProt Q96RR4). Conditions: read-out: 7 at 1 µM % inhibition. In short, it runs like this: as §1
For the next assay, the target named is CIT (Homo sapiens, UniProt O14578). To be noted: read-out: 7 at 1 µM % inhibition. A digest of the protocol:
as §1

The target of another assay is BUB1 (Homo sapiens, UniProt O43683). To be noted: read-out: 7 at 1 µM % inhibition. In short, it runs like this:
as §1

For a further assay, the target named is PKNB(M.tuberculosis) (Mycobacterium tuberculosis, UniProt P9WI81). Conditions: read-out: 7 at 1 µM % inhibition (pathogen kinases). In short, it runs like this:
as §1

The target in a further assay is T2, JNK1 (Homo sapiens, UniProt P45983).
T2 construct: gene MAPK8
T2 sequence (P45983 whole entry): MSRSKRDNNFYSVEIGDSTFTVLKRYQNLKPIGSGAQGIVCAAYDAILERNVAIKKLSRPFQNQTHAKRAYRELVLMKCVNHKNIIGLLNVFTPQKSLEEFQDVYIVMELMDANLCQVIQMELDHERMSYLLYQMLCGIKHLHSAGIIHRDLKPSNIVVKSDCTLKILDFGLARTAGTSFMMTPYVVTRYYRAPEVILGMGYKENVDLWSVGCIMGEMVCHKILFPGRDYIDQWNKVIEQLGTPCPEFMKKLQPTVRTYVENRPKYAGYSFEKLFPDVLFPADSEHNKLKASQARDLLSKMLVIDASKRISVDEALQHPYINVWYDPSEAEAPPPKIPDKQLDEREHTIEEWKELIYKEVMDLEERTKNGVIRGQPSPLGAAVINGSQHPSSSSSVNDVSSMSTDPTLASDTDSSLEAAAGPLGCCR
Conditions: read-out: 7 at 1 µM % inhibition. A digest of the protocol: as §1

In another assay the target is INSRR (Homo sapiens, UniProt P14616). To be noted: read-out: 7 at 1 µM % inhibition. A digest of the protocol:
as §1

In the next assay the target is CDKL5 (Homo sapiens, UniProt O76039). Conditions: read-out: 7 at 1 µM % inhibition. A digest of the protocol: as §1
In a further assay the target is T3, YANK2 (Homo sapiens, UniProt Q9NY57).
T3 construct: gene STK32B
To be noted: read-out: 7 at 1 µM % inhibition. A digest of the protocol: as §1

For a further assay, the target named is KIT(D816V) (Homo sapiens, UniProt P10721, D816V). Conditions: read-out: 7 at 1 µM % inhibition. A digest of the protocol: as §1
In a further assay the target is T4, CDC2L5 (Homo sapiens, UniProt Q14004).
T4 construct: gene CDK13
Conditions: read-out: 7 at 1 µM % inhibition. A digest of the protocol: as §1

The next assay deals with NEK1 (Homo sapiens, UniProt Q96PY6). To be noted: read-out: 7 at 1 µM % inhibition. In short, it runs like this: as §1
Another assay has as its target PIP5K1A (Homo sapiens, UniProt Q99755). Conditions: read-out: 7 at 1 µM % inhibition. A digest of the protocol: as §1
A further assay has as its target CSNK1G1 (Homo sapiens, UniProt Q9HCP0). To be noted: read-out: 7 at 1 µM % inhibition. A digest of the protocol:
as §1

The target in a further assay is CDKL1 (Homo sapiens, UniProt Q00532). To be noted: read-out: 7 at 1 µM % inhibition. A digest of the protocol: as §1
Another assay concerns the target T5, IKK-epsilon (Homo sapiens, UniProt Q14164).
T5 construct: gene IKBKE
Conditions: read-out: 7 at 1 µM % inhibition. A digest of the protocol:
as §1

The target of another assay is ERBB4 (Homo sapiens, UniProt Q15303). To be noted: read-out: 7 at 1 µM % inhibition. In short, it runs like this:
as §1

In a further assay the target is CSF1R-autoinhibited (Homo sapiens, UniProt P07333). Conditions: read-out: 7 at 1 µM % inhibition. In short, it runs like this:
as §1

For the next assay, the target named is NEK7 (Homo sapiens, UniProt Q8TDX7). Conditions: read-out: 7 at 1 µM % inhibition. A digest of the protocol:
as §1

The target in assay [1] is T6, ABL1(H396P)-nonphosphorylated (Homo sapiens, UniProt P00519, H396P).
T6 construct: nonphosphorylated
To be noted: read-out: 7 at 1 µM % inhibition. In short, it runs like this: as §1

Another assay addresses LYN (Homo sapiens, UniProt P07948). To be noted: read-out: 7 at 1 µM % inhibition. In short, it runs like this: as §1
The target of another assay is T7, p38-gamma (Homo sapiens, UniProt P53778).
T7 construct: gene MAPK12
To be noted: read-out: 7 at 1 µM % inhibition. In short, it runs like this:
as §1

Sequence of PIP5K1A (Q99755 whole entry): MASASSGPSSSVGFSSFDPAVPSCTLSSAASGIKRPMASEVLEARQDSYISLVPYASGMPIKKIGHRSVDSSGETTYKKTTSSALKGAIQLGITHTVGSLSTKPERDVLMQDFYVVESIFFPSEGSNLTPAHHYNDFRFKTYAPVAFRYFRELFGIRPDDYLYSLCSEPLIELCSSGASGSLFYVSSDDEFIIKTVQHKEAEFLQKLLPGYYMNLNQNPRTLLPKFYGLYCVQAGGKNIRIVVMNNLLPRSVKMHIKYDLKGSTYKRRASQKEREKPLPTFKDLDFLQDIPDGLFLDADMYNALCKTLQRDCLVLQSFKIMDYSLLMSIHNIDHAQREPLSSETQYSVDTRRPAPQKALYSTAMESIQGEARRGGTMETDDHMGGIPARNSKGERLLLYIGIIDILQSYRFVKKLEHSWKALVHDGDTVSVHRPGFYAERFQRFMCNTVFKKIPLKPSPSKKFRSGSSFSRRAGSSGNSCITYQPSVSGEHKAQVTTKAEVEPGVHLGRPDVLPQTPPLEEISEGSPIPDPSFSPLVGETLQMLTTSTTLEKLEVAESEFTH
T5 sequence (Q14164 whole entry): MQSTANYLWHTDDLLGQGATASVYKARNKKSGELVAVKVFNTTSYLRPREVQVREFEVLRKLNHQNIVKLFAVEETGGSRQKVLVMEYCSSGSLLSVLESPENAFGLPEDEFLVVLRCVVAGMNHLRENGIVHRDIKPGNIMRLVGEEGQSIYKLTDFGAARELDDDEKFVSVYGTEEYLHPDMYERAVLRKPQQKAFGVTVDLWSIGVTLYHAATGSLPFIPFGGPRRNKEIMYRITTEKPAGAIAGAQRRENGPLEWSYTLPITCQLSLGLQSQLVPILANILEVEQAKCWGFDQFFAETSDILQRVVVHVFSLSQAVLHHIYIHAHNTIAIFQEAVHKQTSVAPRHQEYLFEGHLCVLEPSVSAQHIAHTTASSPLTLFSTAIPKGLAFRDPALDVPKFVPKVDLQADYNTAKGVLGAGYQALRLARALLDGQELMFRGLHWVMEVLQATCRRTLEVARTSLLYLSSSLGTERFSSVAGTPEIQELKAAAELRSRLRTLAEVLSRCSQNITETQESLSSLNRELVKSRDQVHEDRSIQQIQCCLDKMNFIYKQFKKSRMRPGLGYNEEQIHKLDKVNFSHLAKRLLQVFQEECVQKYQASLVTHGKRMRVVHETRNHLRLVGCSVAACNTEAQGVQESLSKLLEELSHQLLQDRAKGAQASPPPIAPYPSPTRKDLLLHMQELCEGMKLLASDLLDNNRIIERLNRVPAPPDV
T1 sequence (Q16620 whole entry): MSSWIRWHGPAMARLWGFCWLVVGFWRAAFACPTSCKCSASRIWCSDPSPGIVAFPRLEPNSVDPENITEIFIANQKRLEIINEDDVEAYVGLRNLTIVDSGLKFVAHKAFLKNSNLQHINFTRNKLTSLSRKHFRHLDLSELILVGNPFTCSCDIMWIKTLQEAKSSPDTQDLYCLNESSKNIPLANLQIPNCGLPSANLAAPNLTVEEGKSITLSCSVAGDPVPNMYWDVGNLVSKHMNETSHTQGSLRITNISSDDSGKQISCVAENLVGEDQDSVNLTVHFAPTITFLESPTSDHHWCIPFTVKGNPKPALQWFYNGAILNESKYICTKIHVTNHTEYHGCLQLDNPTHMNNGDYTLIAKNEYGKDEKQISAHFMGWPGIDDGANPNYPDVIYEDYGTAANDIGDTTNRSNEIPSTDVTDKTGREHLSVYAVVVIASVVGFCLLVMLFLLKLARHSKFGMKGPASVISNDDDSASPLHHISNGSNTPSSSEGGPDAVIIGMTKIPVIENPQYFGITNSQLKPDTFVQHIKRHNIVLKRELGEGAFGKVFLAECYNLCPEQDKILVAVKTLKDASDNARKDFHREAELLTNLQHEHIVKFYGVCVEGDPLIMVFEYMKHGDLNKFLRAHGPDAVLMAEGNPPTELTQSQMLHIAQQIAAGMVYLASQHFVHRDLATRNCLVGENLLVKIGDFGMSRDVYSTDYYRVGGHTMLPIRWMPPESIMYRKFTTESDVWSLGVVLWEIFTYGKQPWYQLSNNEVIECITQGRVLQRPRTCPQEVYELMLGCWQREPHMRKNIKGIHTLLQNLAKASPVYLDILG
Sequence of NEK7 (Q8TDX7 whole entry): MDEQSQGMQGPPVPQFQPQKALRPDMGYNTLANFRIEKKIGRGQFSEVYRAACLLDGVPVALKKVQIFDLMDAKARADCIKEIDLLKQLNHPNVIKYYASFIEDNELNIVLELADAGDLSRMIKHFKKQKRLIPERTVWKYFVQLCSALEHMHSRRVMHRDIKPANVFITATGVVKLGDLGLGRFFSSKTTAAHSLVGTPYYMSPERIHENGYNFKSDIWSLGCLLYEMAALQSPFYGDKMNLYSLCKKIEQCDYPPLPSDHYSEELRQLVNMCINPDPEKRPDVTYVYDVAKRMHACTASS
Sequence of CSNK1G1 (Q9HCP0 whole entry): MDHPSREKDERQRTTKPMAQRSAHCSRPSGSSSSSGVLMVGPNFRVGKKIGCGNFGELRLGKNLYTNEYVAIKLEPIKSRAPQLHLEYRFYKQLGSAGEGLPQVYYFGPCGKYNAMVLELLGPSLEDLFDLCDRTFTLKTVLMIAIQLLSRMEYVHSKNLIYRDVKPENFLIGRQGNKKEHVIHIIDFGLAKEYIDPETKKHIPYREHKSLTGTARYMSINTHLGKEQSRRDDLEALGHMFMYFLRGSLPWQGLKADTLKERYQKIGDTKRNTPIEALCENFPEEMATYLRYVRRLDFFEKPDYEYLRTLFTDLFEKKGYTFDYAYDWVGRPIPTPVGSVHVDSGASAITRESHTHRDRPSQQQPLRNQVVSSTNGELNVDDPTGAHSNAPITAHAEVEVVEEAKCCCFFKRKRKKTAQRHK
Sequence of SRPK1 (Q96SB4 whole entry): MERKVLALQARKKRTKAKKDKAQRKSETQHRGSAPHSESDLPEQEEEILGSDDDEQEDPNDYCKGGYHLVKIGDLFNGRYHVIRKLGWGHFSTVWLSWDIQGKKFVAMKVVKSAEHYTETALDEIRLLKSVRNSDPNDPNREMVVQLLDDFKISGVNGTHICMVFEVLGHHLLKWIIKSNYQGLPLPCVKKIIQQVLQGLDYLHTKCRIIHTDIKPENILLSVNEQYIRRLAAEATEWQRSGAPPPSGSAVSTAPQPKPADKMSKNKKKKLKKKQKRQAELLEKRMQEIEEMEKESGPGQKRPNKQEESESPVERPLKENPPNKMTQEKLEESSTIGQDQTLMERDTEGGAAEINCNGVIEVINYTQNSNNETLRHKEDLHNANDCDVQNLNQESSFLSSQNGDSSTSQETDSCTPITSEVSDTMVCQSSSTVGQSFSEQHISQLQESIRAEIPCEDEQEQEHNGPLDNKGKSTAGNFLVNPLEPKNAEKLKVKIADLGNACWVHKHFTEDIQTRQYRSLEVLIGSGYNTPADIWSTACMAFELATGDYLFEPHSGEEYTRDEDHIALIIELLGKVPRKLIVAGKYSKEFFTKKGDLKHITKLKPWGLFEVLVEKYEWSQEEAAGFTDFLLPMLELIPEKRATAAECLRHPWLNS
Sequence of CAMKK2 (Q96RR4 whole entry): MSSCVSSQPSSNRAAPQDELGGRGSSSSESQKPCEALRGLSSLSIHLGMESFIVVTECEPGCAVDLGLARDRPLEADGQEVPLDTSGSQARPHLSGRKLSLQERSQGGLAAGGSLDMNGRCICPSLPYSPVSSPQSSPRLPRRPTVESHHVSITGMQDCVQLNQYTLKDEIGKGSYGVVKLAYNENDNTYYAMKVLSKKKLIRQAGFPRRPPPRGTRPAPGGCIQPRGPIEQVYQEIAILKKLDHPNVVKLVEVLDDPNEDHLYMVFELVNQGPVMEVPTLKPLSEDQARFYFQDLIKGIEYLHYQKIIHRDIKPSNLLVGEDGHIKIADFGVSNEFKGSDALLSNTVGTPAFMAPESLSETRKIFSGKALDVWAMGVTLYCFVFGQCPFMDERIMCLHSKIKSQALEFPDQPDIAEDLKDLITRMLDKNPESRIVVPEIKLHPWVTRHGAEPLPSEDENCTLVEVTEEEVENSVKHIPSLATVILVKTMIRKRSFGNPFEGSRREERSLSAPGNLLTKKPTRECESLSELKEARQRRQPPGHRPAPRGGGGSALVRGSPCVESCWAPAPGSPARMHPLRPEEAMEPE
Sequence of LYN (P07948 whole entry): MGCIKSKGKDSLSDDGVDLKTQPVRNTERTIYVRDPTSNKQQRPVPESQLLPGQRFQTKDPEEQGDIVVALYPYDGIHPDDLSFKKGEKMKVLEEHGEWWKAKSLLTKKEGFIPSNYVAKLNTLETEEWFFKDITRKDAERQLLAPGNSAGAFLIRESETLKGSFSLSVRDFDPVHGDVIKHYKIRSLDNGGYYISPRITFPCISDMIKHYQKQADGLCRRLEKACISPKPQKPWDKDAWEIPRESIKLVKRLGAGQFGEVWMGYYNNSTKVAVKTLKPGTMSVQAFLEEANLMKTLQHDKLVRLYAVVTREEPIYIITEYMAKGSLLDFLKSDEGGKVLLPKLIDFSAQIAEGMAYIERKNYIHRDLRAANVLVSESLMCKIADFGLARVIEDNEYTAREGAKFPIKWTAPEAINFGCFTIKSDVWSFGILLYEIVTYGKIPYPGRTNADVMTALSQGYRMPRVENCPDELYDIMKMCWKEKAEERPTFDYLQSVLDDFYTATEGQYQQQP

Take `CNS(=O)(=O)c1ccc(N(C)C)c(Nc2ncnc3cc(OC)c(OC)cc23)c1` [compound 7, 3-((6,7-dimethoxyquinazolin-4-yl)amino)-4-(dimethylamino)-N-methylbenzenesulfonamide]: the inhibition at 1 µM at TRKB came out at 14%; on NEK3, 0%; on SRPK1, 0%; at CAMKK2, 0%; on CIT, 0%; at BUB1, 8%. The inhibition at 1 µM on PKNB(M.tuberculosis) worked out at 23%; on JNK1, 8%; at INSRR, 13%; on CDKL5, 9%; on YANK2 it was 0%; at KIT(D816V), 91.7%. The inhibition at 1 µM on CDC2L5 was 0%; at NEK1, 0%; on PIP5K1A, 0%; at CSNK1G1, 0%; on CDKL1, 0%; at IKK-epsilon it was 18%. Besides, the inhibition at 1 µM on ERBB4 was 0%; on CSF1R-autoinhibited it was 39%; at NEK7, 0%; in [1] it was 73%; at LYN, 0%; on p38-gamma it was 0%.

The term inhibition denotes the percentage by which the read-out fell short of the control.

The values are drawn from article PMC7180948, “New Insights into 4-Anilinoquinazolines as Inhibitors of Cardiac Troponin I–Interacting Kinase (TNNi3K)” (Molecules, 2020).
